From patent US9857359B2, “Methods for determining drug efficacy using cereblon-associated proteins” (CELGENE CORPORATION, priority 2012, dated 2018) come the findings set out here.

One experiment has as its system Aiolos. Nature of the experiment: Aiolos expression in viably frozen PBMCs prepared from treated whole blood, FACS. It is filed as cell-based, human. As to the method: Pre-weighed test compound was dissolved in 100% DMSO to make 100 mM or 10 mM stock concentrations. The compound in 100% DMSO was diluted to 10 mM, 1 mM, or 0.1 stock concentrations as appropriate. Compounds were directly added to heparinized human whole blood (1:1000 dilution) for final concentrations of 10 μM, 1 μM, or […] as appropriate. Seven (7) ml of whole blood was transferred to a 50 mL conical tube and treated with test compound. The blood was incubated for 1.5 or 5 hours at 37° C., 5% CO2. After each time point, 3.5 ml blood was transferred to BD Vacutainer CPT cell preparation tube, and the tube was […] inverted 10 times and centrifuged at RT, 1800 RCF for 20 minutes. Mononuclear layer was collected and transferred to 15 ml conical tube (3×3.5 ml DMSO controls were added to three CPT tubes, and mononuclear layers were collected and combined for following steps). The tube was filled up with cold PBS and centrifuged at 4° C., 300 RCF for 15 minutes. Supernatant was discarded and cell pellet was resuspended in 2 ml freezing medium (10% DMSO+90% FBS). The cell suspension was transferred to cryovial and was placed in Mr. Frosty (Fisher, cat. 15-350-50) and left at −80° C. freezer O/N.
The cells were thawed in 37° C. water bath and centrifuged, and the freezing medium was removed. The cell pellet was washed 1× with cold PBS. The cells were lyzed and fixed by adding 1× Lyse/Fix buffer and mixed thoroughly by inverting the tube several times. The cell lyse/fix and blood mixture was incubated in a 37° C. water bath for 10 minutes. Cells were pelleted by centrifugation at 500×g for 5 minutes and removed the supernatant by aspiration. Cells were suspended with 1 mL of cold PBS, and then pelleted by centrifugation at 500×g for 5 minutes, and the supernatant was aspirated off. Two hundred (200) μL of PBS was added to cells. Cells were transferred to polystyrene U-bottom 96-well plates (BD, Cat. No. 353910) for use with the FACSCanto HTS. Cells were washed with 200 μL of cold PBS and spun at 500×g for 5 minutes, and the plate was flicked and gently dapped on a paper towel to remove excess buffer. The cells were resuspended and permeabilized by adding 200 μL of cold BD Perm/Wash Buffer I and incubated on ice for 30 minutes. The cells were pelleted by centrifugation at 500×g for 5 minutes and the buffer removed. The cells were washed once with 200 μL BD perm/wash buffer and repelleted, and the buffer was removed.
The cell pellet was resuspended in 40 μL of BD perm/wash buffer. Twenty (20) μL each of anti-CD3-PE, anti-CD20-APC, and anti-Aiolos Rabbit antibodies, or 20 μL of appropriate isotype controls, or 20 μL of 1:400 of normal Rabbit IgG (control for Aiolos) were added to the cells. The mixture was mixed thoroughly and incubated at room temperature for 45 minutes in the dark. The mixture was centrifuged and washed once with BD perm/wash buffer at 500×g for 5 minutes. The cell pellet was resuspended in 80 μL of BD perm/wash buffer, and 20 μL of secondary Goat Anti-Rabbit IgG AF488 antibody (at 1:400 dilution in Perm/Wash Buffer) was added, and the mixture was incubated at RT for 30 min in the dark. Secondary antibody was not added to the isotype controls. The mixture was washed once with 200 μL BD Stain Buffer and centrifuged at 500×g for 5 minutes, and the pelleted cells were resuspended in 200 μL of staining buffer. The cells were analyzed on the BD FACSCanto using the HTS platform. The cells were analyzed using the standard method. If the cells cannot be read right away, the plates were covered in foil to protect from light and stored at 4° C. for up to 2 days. Data analysis was carried out using FlowJo from Tree Star, Inc. to assess mean fluorescence intensity and percent inhibition of Aiolos in cell population.

Experiment [1] relates to Aiolos peptide containing lysine 203. Nature of the experiment: UbiScan mass spectrometry of ubiquitylated proteins in multiple myeloma cells. The class given is cell-based. From the text: Mass spectrometry of ubiquitylated proteins (Ubiscan™): Cell Signaling Technology's UbiScan™ proteomics platform was used to identify and quantify differences in ubiquitination in primary human T cells untreated (Treatment 1) or treated with Treatment 2 or Treatment 3, and in MM cell lines treated with immunomodulatory compounds in the presence or absence of the proteasome inhibitor MG132. The UbiScan™ method combines the isolation of ubiquitinated peptides from protease digested protein extracts using CST's proprietary immunoaffinity purification method with the identification and quantitation of peptides by liquid chromatography, tandem mass spectrometry (LC-MS/MS). The quantification of ubiquitination is based on the abundance of the ubiquitinated peptides recovered by antibody immunoprecipitation. The abundance or intensity information for each ubiquitinated peptide is based on the peak height of that peptide measured in the MS1 channel. The confidence in the calculated fold change is dependent on a number of factors, an important one being the intensity or peak height of the ubiquitinated peptide. Samples were analyzed by LC-MS/MS on an ORBITRAP VELOS™ mass spectrometer. […] Label-free quantitation was performed by comparing peak intensities of the same peptide ion in each sample to generate their corresponding fold-changes. […]

For the compound `O=C1CC[C@H](N2Cc3c(OCc4ccc(CN5CCOCC5)cc4)cccc3C2=O)C(=O)N1` [Compound B, 3-(4-((4-(morpholinomethyl)benzyl)oxy)-1-oxoisoindolin-2-yl)piperidine-2,6-dione], in the experiment on Aiolos (1.5 hours after the treatment), the “Aiolos expression in T and B cell populations” value was “inhibitory effect was observed in both T and B cell populations”; the “Aiolos expression in lymphocytes” value is reported as “some inhibitory effects”; the “Aiolos expression in non-lymphocytes” value was “no effect was observed”. For the same compound, in the experiment on Aiolos (5 hours after the treatment), the “Aiolos expression in lymphocyte cells” value is “significant inhibitory effects” and the “Aiolos expression in non-lymphocytes” value is on record as “no such effects were observed”.

As for `Nc1cccc2c1C(=O)N(C1CCC(=O)NC1=O)C2=O` (stereo not drawn) [pomalidomide, reference compound], the “Ubiquitination of Aiolos peptide containing lysine 203” value in experiment [1] is “enhance the ubiquitination of Aiolos peptide containing lysine 203”.

With `Nc1cccc2c1CN(C1CCC(=O)NC1=O)C2=O` (stereo not drawn) [lenalidomide], in experiment [1], the “Ubiquitination of Aiolos peptide containing lysine 203” value was “enhance the ubiquitination of Aiolos peptide containing lysine 203”.

In the case of `Cc1nc2cccc(N)c2c(=O)n1C1CCC(=O)NC1=O` (stereo not drawn) [Compound A, 3-(5-amino-2-methyl-4-oxo-4H-quinazolin-3-yl)-piperidine-2,6-dione], in the experiment on Aiolos (1.5 hours after the treatment), the “Aiolos expression in T and B cell populations” value was “inhibitory effect was observed in both T and B cell populations”; the “Aiolos expression in lymphocytes” value was “some inhibitory effects”; the “Aiolos expression in non-lymphocytes” value is recorded as “no effect was observed”. Further, in the experiment with Aiolos (5 hours after the treatment), the “Aiolos expression in lymphocyte cells” value was “significant inhibitory effects” and the “Aiolos expression in non-lymphocytes” value is on record as “no such effects were observed”.
